Source: ChEMBL document CHEMBL2074555 (Biochem Pharmacol, 1992)

Target: ATP-dependent translocase ABCB1 (Mus musculus, UniProt P21447)
Test: TP_TRANSPORTER: increase in Vinblastine intracellular accumulation in F4-6RADR cells
Assay type: functional, cell-based

ATP-dependent translocase ABCB1, sequence (P21447 whole entry): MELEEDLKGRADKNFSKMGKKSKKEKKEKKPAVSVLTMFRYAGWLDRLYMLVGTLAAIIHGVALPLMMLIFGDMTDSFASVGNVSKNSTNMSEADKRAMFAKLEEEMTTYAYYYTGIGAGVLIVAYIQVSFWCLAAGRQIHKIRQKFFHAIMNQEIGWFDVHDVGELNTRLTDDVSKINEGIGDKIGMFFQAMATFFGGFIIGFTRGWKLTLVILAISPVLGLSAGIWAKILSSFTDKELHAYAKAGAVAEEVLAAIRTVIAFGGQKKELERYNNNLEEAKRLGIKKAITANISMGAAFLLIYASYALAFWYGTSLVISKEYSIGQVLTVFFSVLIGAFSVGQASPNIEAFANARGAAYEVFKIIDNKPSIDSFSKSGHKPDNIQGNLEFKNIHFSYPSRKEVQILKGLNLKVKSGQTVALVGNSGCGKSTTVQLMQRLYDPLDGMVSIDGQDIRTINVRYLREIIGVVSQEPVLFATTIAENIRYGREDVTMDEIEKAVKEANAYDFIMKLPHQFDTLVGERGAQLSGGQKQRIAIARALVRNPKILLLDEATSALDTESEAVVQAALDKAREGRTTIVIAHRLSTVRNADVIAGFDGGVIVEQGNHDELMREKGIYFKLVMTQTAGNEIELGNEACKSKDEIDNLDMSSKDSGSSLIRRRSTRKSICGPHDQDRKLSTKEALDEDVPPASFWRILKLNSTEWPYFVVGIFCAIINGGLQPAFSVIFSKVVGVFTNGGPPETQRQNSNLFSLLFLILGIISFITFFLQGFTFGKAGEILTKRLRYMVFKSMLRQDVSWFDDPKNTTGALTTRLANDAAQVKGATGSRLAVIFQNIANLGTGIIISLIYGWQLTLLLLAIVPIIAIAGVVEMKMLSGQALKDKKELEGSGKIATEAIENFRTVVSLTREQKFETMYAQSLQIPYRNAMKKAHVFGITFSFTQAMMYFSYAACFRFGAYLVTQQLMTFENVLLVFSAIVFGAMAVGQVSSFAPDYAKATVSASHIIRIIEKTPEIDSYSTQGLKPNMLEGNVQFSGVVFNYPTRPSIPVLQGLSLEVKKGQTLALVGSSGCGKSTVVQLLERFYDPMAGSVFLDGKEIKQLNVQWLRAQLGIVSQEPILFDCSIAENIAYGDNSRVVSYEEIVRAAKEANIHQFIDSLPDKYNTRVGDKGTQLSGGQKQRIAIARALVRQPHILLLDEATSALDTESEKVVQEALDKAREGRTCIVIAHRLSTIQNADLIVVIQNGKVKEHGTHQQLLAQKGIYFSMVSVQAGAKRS

| Activity | SMILES |
| --- | --- |
| inhibitor [+] | COCCOC(=O)C1=C(C)NC(C)=C(C(=O)OC(C)C)C1c1cccc([N+](=O)[O-])c1 (stereo not drawn) [NIMODIPINE] |
| inhibitor [+] | COC(=O)C1=C(C)NC(C)=C(C(=O)OC(C)C)C1c1cccc2nonc12 (stereo not drawn) [ISRADIPINE] |
| inhibitor [+] | COC(=O)C1=C(C)NC(C)=C(C(=O)OCCCN2CCC(c3ccccc3)(c3ccccc3)CC2)[C@H]1c1cccc([N+](=O)[O-])c1 [NIGULDIPINE] |
| inhibitor [+] | CCOC(=O)C1=C(C)NC(C)=C(C(=O)OC)C1c1cccc([N+](=O)[O-])c1 (stereo not drawn) [NITRENDIPINE] |

Further lines, the compound ahead of its results:

| SMILES | Activity |
| --- | --- |
| COc1ccc(CCN(C)CCCC(C#N)(c2cc(OC)c(OC)c(OC)c2)C(C)C)cc1OC (stereo not drawn) [GALLOPAMIL] | inhibitor [+] |
| COc1cccc(CCN(C)CCCC(C#N)(c2ccc(OC)c(OC)c2)C(C)C)c1 (stereo not drawn) | inhibitor [+] |
| CCOC(=O)C1=C(C)NC(C)=C(C(=O)OC)C1c1cccc(Cl)c1Cl (stereo not drawn) [FELODIPINE] | inhibitor [+] |
| CC(C)C(C#N)(CCCN(C)CCc1ccccc1)c1ccccc1 (stereo not drawn) [EMOPAMIL] | inhibitor [+] |
